According to publication PMC9401491, “The Novel Nucleoside Analogue ProTide NUC-7738 Overcomes Cancer Resistance Mechanisms In Vitro and in a First-In-Human Phase I Clinical Trial” (Clinical Cancer Research, 2021):
Read-outs that look alike come from different tables or passages of the source.

Tests used:
[1] = NuTide:701 first-in-human phase I study; format: in vivo; conditions: human, in vivo
Method: A Safety Study of NUC-7738 in Patients with Advanced Solid Tumours or Lymphoma, ClinicalTrials number: NCT03829254. Approved by Oxford C Ethics Committee ref 18/SC/0628.
This study is currently ongoing at three centers in the United Kingdom: Edinburgh, Newcastle, and Oxford. As of June 1, 2021, 28 patients with advanced cancers have been enrolled and received escalating doses of 14–900 mg/m^2 (intravenous infusion from 30–120 minutes) once weekly until dose-limiting toxicity or disease progression occurs. Intrapatient dose escalation ensures those starting at lower dose levels of NUC-7738 are continuously moved to higher doses once safety has been established. The most common cancers to be included are immunotherapy-resistant melanoma (n = 8), colorectal cancer (n = 3), and gastric and lung cancer (n = 2 each). […] A posttreatment biopsy was taken from a patient with melanoma and compared with their archived specimen collected prior to enrolling in the clinical trial. […] Transcriptional profiling of the specimens using RNA-seq identified more than 1,069 genes which were at least 2-fold differentially expressed after treatment with NUC-7738 (Fig. 6C and Supplementary Fig. S6A–C).

[2] = Beagle dog 4-week toxicology and toxicokinetics
CAKI-1 = assay: MTT cell viability, CAKI-1; format: cell-based; conditions: Homo sapiens; CAKI-1, 48 hours; mean (±SEM); read-out: IC50
Method: (§1) Cells (10^4) were seeded into 96-well plates and then treated with NUC-7738 (lot 5132/E00393/119) or 3′-dA (cordycepin, catalog no. C3394, lot 067M4182, Sigma) for 48 hours. One and a half milligrams per milliliter MTT (catalog no. M6494, Invitrogen) in a 1:1 ratio was added to cell culture media. After a 2-hour incubation at 37°C, media was removed and 70 μl of isopropanol was added. Optical densities at 570 nm were measured using POLARstar Omega plate reader. Readouts were normalized and IC50 values were calculated using a nonlinear regression model in Graphpad prism (v8.3.0). Each biological replicate (at least 3) was performed in 4 technical replicates to calculate the average IC50 value. To measure apoptosis, the Guava NexinReagent (Luminex Corp.) was used following manufacturer's instructions. Fluorescence staining was measured with an automated 96-well Guava easyCyte Flow Cytometer (Luminex Corp.).

501MEL = assay: MTT cell viability, 501MEL; format: cell-based; conditions: 501MEL, 48 hours; mean (±SEM); read-out: IC50
Method: as §1

[3] = tested on: Gastric or cervical cancer cells; assay: Apoptosis by cleaved PARP Western blot; format: cell-based; conditions: 50 and 100 μmol/L, 24 hours
Method: as §1
Cells were harvested and lyzed using RIPA lysis and extraction buffer (Thermo Scientific) following manufacturer's protocol. Twenty to 30 μg of total protein lysates was loaded on Mini-PROTEAN TGX precast gels (Bio-Rad). Separated proteins were transferred to a polyvinylidene difluoride (PVDF) membrane using Trans-Blot Turbo Transfer System (Bio-Rad) followed by incubation with primary and horseradish peroxidase (HRP)–conjugated secondary antibodies [anti-mouse, catalog no. […]

NCI-786 = assay: MTT cell viability, NCI-786; format: cell-based; conditions: NCI-786, 48 hours; mean (±SEM); read-out: IC50
Method: as §1

UO-31 = assay: MTT cell viability, UO-31; format: cell-based; conditions: Homo sapiens; UO-31, 48 hours; mean (±SEM); read-out: IC50
Method: as §1

Tera-1 = assay: MTT cell viability, Tera-1; format: cell-based; conditions: Tera-1, 48 hours; mean (±SEM); read-out: IC50
Method: as §1

A498 = assay: MTT cell viability, A498; format: cell-based; conditions: Homo sapiens; A498, 48 hours; mean (±SEM); read-out: IC50
Method: as §1

[4] = parameters: method as in PMID 20302371; conditions: cited from earlier work
SK-OV3 = assay: MTT cell viability, SK-OV3; format: cell-based; conditions: Homo sapiens, SK-OV-3; SK-OV3, 48 hours; 2 biological replicates; read-out: IC50
Method: as §1

[5] = tested on: NUDT2 knockout HAP1 cells; assay: Sensitivity of NUDT2 CRISPR/Cas9 knockout HAP1 cells; format: cell-based, human; conditions: HAP1 NUDT2 knockout vs wildtype
Method: Cells were transfected with stealth siRNA (catalog no. HSS104782, catalog no. HSS104784, catalog no. HSS179235; ThermoFisher) targeting HINT-1 using Lipofectamine RNAiMAX (Invitrogen) following the manufacturer's protocol. At 48 hours posttransfection, cells were treated and cell viability was measured 96 hours posttransfection as described above. Samples for Western blot analysis were harvested 48 hours posttransfection. For gene-depletion experiments, approximately 4 × 10^5 HAP1 cells were seeded per well in a 6-well plate and grown to approximately 50% confluency. After 24 hours, cells were transfected with lentiCRISPR v2 plasmid (GenScript) containing a guide RNA (gRNA) targeting gene of interest using Turbofectin (catalog no. TF81001, OriGene) according to manufacturer's instruction. The following sequences were used: HINT-1 CRISPR gRNA 2 ([…]) and NUDT2 CRISPR gRNA 2 ([…]). At 24 hours posttransfection, positively transfected cells were selected using […] puromycin for 72 hours. After selection, surviving colonies were expanded and used for downstream analysis. For clonal selection, clones were selected using limited dilution and expanded into a 6-well plate for Western blot screening.

HAP1 cells [6] = assay: HAP1 viability with ADA, hENT1 or ADK inhibitors; format: cell-based, human; conditions: HAP1, EHNA, NBTI, A134974
Method: as §1
To assess whether NUC-7738 was resistant to ADA and could bypass ADK and hENT1 (SLC29A1), cell viability was measured after treatment with their specific and corresponding protein inhibitors: erythro-9-(2-Hydroxy-3-nonyl) adenine hydrochloride (EHNA), A134974, and S-(4-nitrobenzyl)-6-thioinosine (NBTI), respectively ([16, 17, 34, 35]).

cancer cell lines = assay: IC50 across a wide set of cancer cell lines; format: cell-based; conditions: mean across a wide set of cancer cell lines; read-out: mean IC50
Method: as §1

ACHN = assay: MTT cell viability, ACHN; format: cell-based; conditions: Homo sapiens, 48 hours, mean (±SEM), read-out: IC50
Method: as §1

AGS = assay: MTT cell viability, AGS; format: cell-based; conditions: Homo sapiens, 48 hours, mean (±SEM), read-out: IC50
Method: as §1

HAP1 cells [7] = assay: MTT cell viability, HAP1 cells; format: cell-based; conditions: Homo sapiens
Method: as §1

[8] = all doses, both occasions and genders

Q: With `Nc1ncnc2c1ncn2[C@@H]1O[C@H](COP(=O)(O)OP(=O)(O)OP(=O)(O)O)C[C@H]1O` [3′-dATP, 3′-dA-5′-triphosphate] as the compound, how does the intracellular half-life [1] read?
A: approximately 50 h

Q: Which results are given for `O=c1[nH]cnc2c1ncn2[C@@H]1O[C@H](CO)C[C@H]1O` [3′-deoxyinosine]?
A: mean ratio metabolite/parent, AUC 0-t [2, 8]: 1.32; mean ratio metabolite/parent, Cmax [2, 8]: 0.42; Tmax ([2]; both, beagle, plasma, iv): 15 min

Q: Which IC50 (CAKI-1) does the source give for `Nc1ncnc2c1ncn2[C@@H]1O[C@H](CO)C[C@H]1O` [3′-dA, 3′-deoxyadenosine, reference compound] here?
A: 291 µM

Q: And the IC50 (501MEL)?
A: 137 µM

Q: What about the “apoptotic cell death, cleaved PARP-1” value [3] of the same compound?
A: induced apoptotic cell death

Q: What about the IC50 (NCI-786) of the same compound?
A: 181 µM

Q: What about the IC50 (UO-31) of the same compound?
A: 385 µM

Q: And the IC50 (Tera-1)?
A: 200 µM

Q: And the IC50 (A498)?
A: 479 µM

Q: What about the half-life in plasma [4] of the same compound?
A: 1.6 min

Q: And the IC50 (SK-OV3)?
A: 360 µM

Q: What about the “resistance after NUDT2 deletion” value [5] of the same compound?
A: Specific resistance

Q: And the “potency upon inhibition of ADA, hENT1 or ADK” value (HAP1 cells [6])?
A: dependent on ADA, hENT1, and ADK

Q: What about the IC50 (cancer cell lines) of the same compound?
A: 138 µM

Q: What about the IC50 (ACHN) of the same compound?
A: 393 µM

Q: And the IC50 (AGS)?
A: 460 µM

Q: And the IC50 (HAP1 cells [7]; HAP1, 48 hours, MTT, mean (±SEM) of 4 biological replicates, read-out: IC50)?
A: 49.9 µM

Q: And the IC90 (HAP1 cells [7]; HAP1, 48 hours, MTT, mean (±SEM) of 4 biological replicates, read-out: IC90)?
A: 151 µM

Q: What about the IC50 (HAP1 cells [7]; HAP1, as stated in RNA-seq method, read-out: IC50 concentration used for RNA-seq) of the same compound?
A: 46 µM

Q: And the IC90 (HAP1 cells [7]; HAP1, as stated in RNA-seq method, read-out: IC90 concentration used for RNA-seq)?
A: 375 µM
